Experimental data published in patent publication US11542262B2, “Phosphatidylinositol 3-kinase inhibitors” (NANJING ZHENGXIANG PHARMACEUTICALS CO., LTD., priority 2019, dated 2023).
≈ marks a conversion by molar mass, not a printed value.

What was measured:
[1] = biological target: PI3Kα (Homo sapiens, UniProt P42336); assay: ADP-Glo luminescent assay, enzymatic activity of PI3K alpha; type: biochemical; details: ATP 25 μM; read-out: PI3K alpha (nM) inhibitory activity (IC50)
Procedure: Enzymatic activity of PI3K isoforms: Enzymatic activity of the class I PI3K isoforms in the presence of the compounds of Table 1 was measured using ADP-Glo luminescent assay against PI3Kα, PI3Kβ, PI3Kδ and PI3Kγ with ATP concentration at 25 μM. IPI-549 was used as the reference compound. The compounds would be tested from 1 or 10 μM, 3-fold dilution for 10 doses, in duplicate.
Compound preparation: Dilute a compound to 100× of the final desired highest inhibitor concentration in reaction by 100% DMSO. Transfer 100 μl of this compound dilution to a well in a 96-well plate and serially dilute it with DMSO for a total of 10 concentrations.
Kinase reaction: Prepare a solution of PI3K in 1× kinase buffer at 2-fold the final concentration of each reagent in the assay. Control wells contain 1× kinase buffer without enzyme. Prepare substrate solution of PIP2 substrate and ATP in 1× kinase reaction buffer at 2-fold of the final concentration. Add concentration substrate solution to each well to the final concentration. Cover the assay plate, shake to mix, and incubate at room temperature for 1 hour. Add 5 μl of ADP-Glo reagent to each well to stop the reaction. Mix briefly with a quick spin, shake slowly on the shaker for 120 min. Add 10 ul Kinase Detection Reagent to each well, shake 1 min, equilibrate for 30 min before reading on a luminescence plate reader.
Data Analysis: Convert RLU values to percent inhibition values as Percent inhibition=(max−sample RLU)/(max−min)*100. “min”—no enzyme control; “max”—DMSO control. Fit the data in XLFit excel add-in version 5.4.0.8 to obtain IC50 values. Y=Bottom+(Top−Bottom)/(1+(IC50/X)^HillSlope).

[2] = biological target: PI3Kδ (Homo sapiens, UniProt O00329); assay: ADP-Glo luminescent assay, enzymatic activity of PI3K delta; type: biochemical; details: ATP 25 μM; read-out: PI3K delta (nM) inhibitory activity (IC50)
PI3Kδ, sequence (O00329 whole entry, species assumed): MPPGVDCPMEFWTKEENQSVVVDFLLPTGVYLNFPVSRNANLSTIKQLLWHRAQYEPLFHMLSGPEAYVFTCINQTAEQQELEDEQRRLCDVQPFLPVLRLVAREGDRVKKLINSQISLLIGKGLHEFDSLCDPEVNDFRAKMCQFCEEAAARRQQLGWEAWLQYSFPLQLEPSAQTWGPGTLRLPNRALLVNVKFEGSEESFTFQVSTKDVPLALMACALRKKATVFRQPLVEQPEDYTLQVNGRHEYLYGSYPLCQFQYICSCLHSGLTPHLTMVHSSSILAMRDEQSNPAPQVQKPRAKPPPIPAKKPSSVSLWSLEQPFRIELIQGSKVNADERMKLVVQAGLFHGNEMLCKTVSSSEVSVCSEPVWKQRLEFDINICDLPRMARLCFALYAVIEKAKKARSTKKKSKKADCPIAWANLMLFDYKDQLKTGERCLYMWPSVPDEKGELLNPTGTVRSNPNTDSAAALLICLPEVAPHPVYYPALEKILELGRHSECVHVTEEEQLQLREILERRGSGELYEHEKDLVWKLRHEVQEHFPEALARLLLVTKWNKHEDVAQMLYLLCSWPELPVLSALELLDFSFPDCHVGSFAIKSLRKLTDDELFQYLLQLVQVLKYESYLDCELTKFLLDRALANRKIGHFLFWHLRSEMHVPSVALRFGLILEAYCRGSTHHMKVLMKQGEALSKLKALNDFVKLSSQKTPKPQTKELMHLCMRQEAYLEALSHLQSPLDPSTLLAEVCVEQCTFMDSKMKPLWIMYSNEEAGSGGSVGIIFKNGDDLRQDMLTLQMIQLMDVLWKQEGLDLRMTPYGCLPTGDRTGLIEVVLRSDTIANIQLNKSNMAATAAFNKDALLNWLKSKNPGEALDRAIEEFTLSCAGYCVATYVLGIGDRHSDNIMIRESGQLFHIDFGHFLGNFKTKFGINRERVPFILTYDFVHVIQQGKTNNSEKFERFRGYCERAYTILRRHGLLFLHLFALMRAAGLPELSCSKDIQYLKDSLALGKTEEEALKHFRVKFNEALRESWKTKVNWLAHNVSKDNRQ
PI3Kδ, sequence (P27986 whole entry partner, species assumed): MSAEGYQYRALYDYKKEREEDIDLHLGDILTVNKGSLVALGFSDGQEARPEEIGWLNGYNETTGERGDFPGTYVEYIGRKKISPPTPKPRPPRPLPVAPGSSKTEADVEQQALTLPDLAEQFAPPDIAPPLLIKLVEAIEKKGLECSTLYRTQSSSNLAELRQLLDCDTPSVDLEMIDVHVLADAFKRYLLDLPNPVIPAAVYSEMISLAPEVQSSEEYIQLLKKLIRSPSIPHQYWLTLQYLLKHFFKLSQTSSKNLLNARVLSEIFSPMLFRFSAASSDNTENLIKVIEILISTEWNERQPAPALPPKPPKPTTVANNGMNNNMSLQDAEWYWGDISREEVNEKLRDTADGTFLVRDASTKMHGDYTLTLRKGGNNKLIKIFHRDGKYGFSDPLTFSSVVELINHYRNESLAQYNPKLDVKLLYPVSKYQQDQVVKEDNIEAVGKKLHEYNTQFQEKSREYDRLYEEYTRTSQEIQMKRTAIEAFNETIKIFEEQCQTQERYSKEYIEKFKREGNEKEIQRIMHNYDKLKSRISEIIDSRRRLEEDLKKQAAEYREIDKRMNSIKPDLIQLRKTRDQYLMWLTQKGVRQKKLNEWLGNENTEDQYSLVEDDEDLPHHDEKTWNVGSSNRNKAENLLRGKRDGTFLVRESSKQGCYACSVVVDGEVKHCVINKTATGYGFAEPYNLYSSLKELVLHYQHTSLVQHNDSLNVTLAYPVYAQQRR

[3] = Kinetic solubility test in PBS pH7.4; type: physicochemical; details: for solubility at 2 h: aqueous buffer, kinetic from dmso stock, PBS pH 7.4, 25° C.
[4] = biological target: T1, PI3K delta (Homo sapiens, UniProt O00329); assay: Raji cell assay: phosphorylation of AKT in anti-IgM stimulated Raji cells (AlphaLISA); type: cell-based; details: pAKT, read-out: PI3K delta Raji cell (nM) cellular activity (IC50)
T1 construct: endogenous in cells; host or cells: Raji
T1 sequence (O00329 whole entry): as the sequence (O00329 whole entry, species assumed) above
T1 sequence (P27986 whole entry partner): as the sequence (P27986 whole entry partner, species assumed) above
Procedure: This study aims to determine the inhibitory effect of compounds on PI3K gamma and PI3K delta in corresponding cell based assays. PI3K gamma activity was reflected by phosphorylation of AKT in C5a stimulated RAW264.7 cells, and PI3K delta activity was reflected by phosphorylation of AKT in anti-IgM stimulated Raji cells. Phosphorylation of AKT in cells was determined using AlphaLISA technology from PerkinElmer.
Raji cell assay: Prepare Passage 11 Raji cell and add 6 μL of 60K cells per well in 384-well plate. Centrifuge at 500 RPM for 30 s and incubate for 2 hours at 37° C., 5% CO2. Add 30 nL compound by Echo and incubate for 30 min at 37° C. Add 2 μL of IgM (4×, 12 μg/mL) per well, centrifuge at 500 RPM for 30 s and incubate for 10 min at 37° C. Add 2 μL of 5× lysis buffer by Multidrop. Shake 10 min on a plate shaker. Add 5 μL acceptor mix provided in the kit. Centrifuge at 1000 RPM for 1 min. Add 5 μL donor mix provided in the kit. Centrifuge at 1000 RPM for 1 min. Then incubate for 2 hours at 25° C., keep the plate in dark. Read AlphaLISA signal on Envision.
Data analysis: Fit the cpd IC50 from non-linear regression equation. Y=Bottom+(Top−Bottom)/(1+10^((Log IC50−X)*Hill Slope)) X: Log of cpd concentration Y: Inhibition

[5] = biological target: T2, PI3K gamma (Mus musculus, UniProt Q9JHG7); assay: Raw264.7 cell assay: phosphorylation of AKT in C5a stimulated RAW264.7 cells (AlphaLISA); type: cell-based; details: pAKT, read-out: PI3K gamma Raw264.7 cell (nM) cellular activity (IC50)
T2 construct: endogenous in cells; host or cells: RAW264.7
T2 sequence (Q9JHG7 whole entry): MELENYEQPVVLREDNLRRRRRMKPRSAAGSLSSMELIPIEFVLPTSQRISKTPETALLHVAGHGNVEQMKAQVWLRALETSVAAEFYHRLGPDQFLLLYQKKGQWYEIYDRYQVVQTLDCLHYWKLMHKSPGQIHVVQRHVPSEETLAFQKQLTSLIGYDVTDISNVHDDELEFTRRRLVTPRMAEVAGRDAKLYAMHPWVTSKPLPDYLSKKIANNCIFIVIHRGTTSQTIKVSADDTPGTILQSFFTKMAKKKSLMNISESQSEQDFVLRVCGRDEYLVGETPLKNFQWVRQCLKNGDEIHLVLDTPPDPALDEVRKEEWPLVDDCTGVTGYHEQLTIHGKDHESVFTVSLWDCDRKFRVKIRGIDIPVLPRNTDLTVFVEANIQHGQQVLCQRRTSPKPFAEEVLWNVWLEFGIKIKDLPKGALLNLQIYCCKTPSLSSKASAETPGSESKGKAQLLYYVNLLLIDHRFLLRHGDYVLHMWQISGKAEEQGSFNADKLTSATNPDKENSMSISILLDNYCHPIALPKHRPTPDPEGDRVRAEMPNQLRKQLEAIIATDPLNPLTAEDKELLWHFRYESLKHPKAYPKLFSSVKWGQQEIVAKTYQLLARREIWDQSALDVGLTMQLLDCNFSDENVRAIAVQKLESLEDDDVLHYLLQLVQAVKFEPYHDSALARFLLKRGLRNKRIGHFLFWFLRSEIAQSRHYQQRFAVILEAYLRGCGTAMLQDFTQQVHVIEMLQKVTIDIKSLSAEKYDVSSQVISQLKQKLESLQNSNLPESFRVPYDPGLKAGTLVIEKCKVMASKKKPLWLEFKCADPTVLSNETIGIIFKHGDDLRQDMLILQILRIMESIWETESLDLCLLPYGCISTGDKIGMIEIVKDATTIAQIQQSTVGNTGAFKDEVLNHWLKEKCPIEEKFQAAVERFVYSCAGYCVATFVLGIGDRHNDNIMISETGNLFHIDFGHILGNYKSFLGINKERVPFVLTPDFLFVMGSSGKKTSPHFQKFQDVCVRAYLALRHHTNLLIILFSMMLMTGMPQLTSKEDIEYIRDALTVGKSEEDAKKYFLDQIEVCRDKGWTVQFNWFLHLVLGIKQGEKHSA
T2 sequence (Q5SW28 whole entry partner): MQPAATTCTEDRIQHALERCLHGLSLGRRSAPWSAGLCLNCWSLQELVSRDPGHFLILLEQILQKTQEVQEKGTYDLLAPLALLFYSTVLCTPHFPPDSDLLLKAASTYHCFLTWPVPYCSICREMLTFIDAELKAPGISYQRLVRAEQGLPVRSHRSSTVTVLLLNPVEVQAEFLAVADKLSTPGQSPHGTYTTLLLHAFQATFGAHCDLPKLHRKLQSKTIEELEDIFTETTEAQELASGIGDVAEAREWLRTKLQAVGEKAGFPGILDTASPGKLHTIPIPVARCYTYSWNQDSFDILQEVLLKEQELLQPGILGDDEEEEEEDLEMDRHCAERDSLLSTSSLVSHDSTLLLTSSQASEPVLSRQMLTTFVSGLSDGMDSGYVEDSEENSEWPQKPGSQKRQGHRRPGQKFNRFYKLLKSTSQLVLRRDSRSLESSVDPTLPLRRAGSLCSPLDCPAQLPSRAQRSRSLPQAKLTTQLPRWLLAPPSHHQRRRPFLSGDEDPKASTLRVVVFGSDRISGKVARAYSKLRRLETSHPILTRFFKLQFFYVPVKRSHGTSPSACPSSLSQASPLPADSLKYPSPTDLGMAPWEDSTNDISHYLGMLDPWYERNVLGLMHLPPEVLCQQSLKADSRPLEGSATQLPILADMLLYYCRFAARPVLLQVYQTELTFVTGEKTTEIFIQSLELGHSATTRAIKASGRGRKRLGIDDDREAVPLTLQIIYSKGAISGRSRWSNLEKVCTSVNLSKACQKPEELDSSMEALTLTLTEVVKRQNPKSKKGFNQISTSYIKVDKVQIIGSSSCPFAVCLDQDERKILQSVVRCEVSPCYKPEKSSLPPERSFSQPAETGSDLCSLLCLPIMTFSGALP
Summary of the method: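 Passage-15 RAW264.7 cells were plated and rested 2 h at 37 °C, then given compound for 30 min at 37 °C before C5a stimulation. Lysates went to phospho-AKT AlphaLISA with a 2 h dark incubation at 25 °C. IC50 came from a four-parameter logistic fit of inhibition against log concentration.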

PI3Kα, sequence (P42336 whole entry, species assumed, canonical isoform): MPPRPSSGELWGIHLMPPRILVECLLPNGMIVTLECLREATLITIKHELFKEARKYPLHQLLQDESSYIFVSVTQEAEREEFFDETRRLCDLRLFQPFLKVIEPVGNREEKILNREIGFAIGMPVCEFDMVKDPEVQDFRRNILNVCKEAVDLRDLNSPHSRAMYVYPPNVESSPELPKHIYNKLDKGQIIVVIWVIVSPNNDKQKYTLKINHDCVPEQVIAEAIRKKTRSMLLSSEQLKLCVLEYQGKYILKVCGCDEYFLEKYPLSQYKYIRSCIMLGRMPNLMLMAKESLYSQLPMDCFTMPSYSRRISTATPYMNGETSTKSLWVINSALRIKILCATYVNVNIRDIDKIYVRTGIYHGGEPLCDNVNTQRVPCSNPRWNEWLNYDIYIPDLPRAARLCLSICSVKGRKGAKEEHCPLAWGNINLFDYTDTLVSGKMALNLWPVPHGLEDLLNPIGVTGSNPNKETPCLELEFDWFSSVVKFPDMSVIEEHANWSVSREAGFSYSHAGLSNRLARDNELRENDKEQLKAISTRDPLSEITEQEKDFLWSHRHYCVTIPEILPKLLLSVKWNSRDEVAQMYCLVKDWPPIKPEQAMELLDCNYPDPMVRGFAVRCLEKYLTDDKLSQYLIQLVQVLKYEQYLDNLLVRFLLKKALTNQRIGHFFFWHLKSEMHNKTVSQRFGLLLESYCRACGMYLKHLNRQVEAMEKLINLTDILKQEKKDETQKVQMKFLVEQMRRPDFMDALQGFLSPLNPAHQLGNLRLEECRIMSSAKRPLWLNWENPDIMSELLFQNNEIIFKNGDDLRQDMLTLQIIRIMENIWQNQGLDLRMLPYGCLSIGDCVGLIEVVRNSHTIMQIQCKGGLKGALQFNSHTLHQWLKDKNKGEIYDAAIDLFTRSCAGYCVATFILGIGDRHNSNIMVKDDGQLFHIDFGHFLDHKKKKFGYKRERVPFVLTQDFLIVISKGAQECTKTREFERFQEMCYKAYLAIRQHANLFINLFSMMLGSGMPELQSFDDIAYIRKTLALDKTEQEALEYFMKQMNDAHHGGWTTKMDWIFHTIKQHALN
PI3Kα, sequence (P27986 whole entry partner, species assumed, canonical isoform): as the sequence (P27986 whole entry partner, species assumed) above

Compound	IC50 [1]	IC50 [2]	solubility at 2 h [3]	fold improvement over AZ-17 in kinetic solubility test ([3]; physiologic pH)	IC50 [4]	IC50 [5]
CC(=O)Nc1nc(C)c(-c2cc3c(c(NS(C)(=O)=O)n2)C(=O)N([C@@H](C)C2CC2)C3)s1 [Compound 20, (S)-N-(5-(2-(1-cyclopropylethyl)-4-(methylsulfonamido)-3-oxo-2,3-dihydro-1H-pyrrolo[3,4-c]pyridin-6-yl)-4-methylthiazol-2-yl)acetamide]	3890 nM	1170 nM	240 µM (≈ 108 µg/mL)	> 200 fold	2160 nM	4.3 nM
CC(=O)Nc1nc(C)c(-c2cc3c(c(N4CCOCC4)n2)C(=O)N([C@@H](C)C2CC2)C3)s1 [Compound 34, (S)-N-(5-(2-(1-cyclopropylethyl)-4-morpholino-3-oxo-2,3-dihydro-M-pyrrolo[3,4-c]pyridin-6-yl)-4-methylthiazol-2-yl)acetamide]	3330 nM	> 1000 nM	9.6 µM (≈ 4.24 µg/mL)		1960 nM	1.6 nM
